In brackets after ≈: the same amount, converted by molar mass.
tested on: C. albicans ATCC 10231; assay: Microdilution MIC/MMC with resazurin; format: cell-based, Candida albicans; details: C. albicans ATCC 10231; compounds 1–8
Description: (§1) The antimicrobial activity was evaluated against 15 microorganisms. This included 11 bacterial strains: four standard strains (Staphylococcus aureus ATCC 25923, Bacillus subtilis ATCC 6633, Bacillus pumilus NCTC 8241, and Escherichia coli ATCC 25922) and six clinical or environmental isolates (Staphylococcus aureus, Escherichia coli, Bacillus cereus, Proteus mirabilis, Salmonella enterica, and Klebsiella pneumoniae). One probiotic strain, Bifidobacterium animalis subsp. lactis was tested. In addition, four fungal strains, Candida albicans ATCC 10231, Trichoderma viride ATCC 13233, Aspergillus flavus ATCC 9170, and Fusarium solani ATCC 11712 were tested. The bacterial strains were kept in glycerol stock at −80 °C and the fungal strains in paraffin oil stock at 4 °C.
(§2) Bacterial and yeast suspensions were prepared using the direct colony method, as previously described by Andrews. The turbidity of the initial suspensions was adjusted to match the 0.5 McFarland standard using a densitometer (Biosan, Riga, Latvia), corresponding to approximately 10^8 colony-forming units (CFU)/mL for bacterial cells and 10^6 CFU/mL for yeast cells. Subsequently, 1:100 dilutions of the initial suspensions were prepared in sterile 0.85% saline. Fungal spore suspensions were obtained by gently harvesting spores from agar slopes containing mature mycelial growth. The collected spore suspensions were then diluted 1:1000 in sterile 0.85% saline prior to use.
(§3) Antimicrobial activity was evaluated by determining the minimum inhibitory concentration (MIC) and minimum microbicidal concentration (MMC) using the microdilution plate method with resazurin as an indicator [28]. In the 96-well plates, 100 μL of Mueller–Hinton broth (Torlak, Belgrade, Serbia) for bacterial testing and Sabouraud broth (Torlak, Belgrade, Serbia) for fungal testing were dispensed into each well. The compounds under investigation were initially dissolved in a 10% dimethyl sulfoxide (DMSO) solution, followed by dilution in sterile distilled water, resulting in a working compound solution containing 1% DMSO. A 100 μL aliquot of the stock solution of the tested compound was added to the first row, and twofold serial dilutions were then carried out using a multichannel pipette. The resulting concentration range was from 5 to 0.039 mg/mL. The inoculated microtiter plates were incubated at 37 °C for 24 h for bacteria, at 28 °C for 48 h for yeasts, and at 28 °C for 72 h for molds.
(§4) Each test also included growth control and sterility control. All tests were conducted in duplicate. MIC was defined as the lowest concentration of tested compounds that prevented resazurin color change from blue to pink. For molds, MIC values of the tested compound were determined as the lowest concentration that inhibited visible mycelia growth. MMC was determined by inoculation of the nutrient agar medium by plating […] of samples from wells, where no indicator color change was recorded. At the end of the incubation period, the lowest concentration with no growth (no colony) was defined as MMC.
(§5) Doxycycline, ampicillin and amphotericin B (- Sigma-Aldrich, St. Louis, MO, USA) and ketoconazole (Hemofarm A.D., Vršac, Serbia) were dissolved in a nutrient liquid medium. Doxycycline is a broad-spectrum antibiotic effective against both aerobic and anaerobic Gram-positive and Gram-negative bacteria. Ampicillin, a beta-lactam antibiotic, primarily targets Gram-positive bacteria but also some Gram-negative strains. Amphotericin B is an antifungal drug often used for serious systemic fungal infections and is one of the effective treatments for fungal infections caused by Aspergillus sp. Ketoconazole is an antifungal agent used to inhibit the growth of Candida species.

Structure (SMILES) | MMC
Oc1ccc(CCN=C=S)cc1 [Compound 8, 2-(4-hydroxyphenyl)ethyl isothiocyanate] | 2.5 mg/mL
O=C1NCC(c2ccccc2)O1 (centres unmarked) [Compound 7, 5-Phenyl-1,3-oxazolidin-2-one] | 5 mg/mL
S=C1NC[C@H](c2ccccc2)O1 [Compound 5, (S)-5-phenyl-1,3-oxazolidine-2-thione] | >5 mg/mL
S=C1NCC(c2ccccc2)O1 (racemic) [Compound 4, rac-5-Phenyl-1,3-oxazolidine-2-thione] | 5 mg/mL

same assay, conditions: Candida albicans, ATCC10231

Structure (SMILES) | MIC
Oc1ccc(CCN=C=S)cc1 [Compound 8, 2-(4-hydroxyphenyl)ethyl isothiocyanate] | 2500 µg/mL (≈ 13.9 mM)

same assay, conditions: Candida albicans, ATCC10231; C. albicans ATCC 10231; compounds 1–8; read-out: MIC

Structure (SMILES) | MIC
O=C1NCC(c2ccccc2)O1 (centres unmarked) [Compound 7, 5-Phenyl-1,3-oxazolidin-2-one] | 2500 µg/mL (≈ 15.3 mM)
S=C1NC[C@H](c2ccccc2)O1 [Compound 5, (S)-5-phenyl-1,3-oxazolidine-2-thione] | 5000 µg/mL (≈ 27.9 mM)
S=C1NCC(c2ccccc2)O1 (racemic) [Compound 4, rac-5-Phenyl-1,3-oxazolidine-2-thione] | 5000 µg/mL (≈ 27.9 mM)

biological target: T1, Type I-B soybean lipoxygenase (Glycine max, UniProt P08170); assay: LOX inhibition assay; format: biochemical; details: 100 µM; mean ± SD; read-out: Percentage of LOX Inhibition
T1 sequence (P08170 1-839): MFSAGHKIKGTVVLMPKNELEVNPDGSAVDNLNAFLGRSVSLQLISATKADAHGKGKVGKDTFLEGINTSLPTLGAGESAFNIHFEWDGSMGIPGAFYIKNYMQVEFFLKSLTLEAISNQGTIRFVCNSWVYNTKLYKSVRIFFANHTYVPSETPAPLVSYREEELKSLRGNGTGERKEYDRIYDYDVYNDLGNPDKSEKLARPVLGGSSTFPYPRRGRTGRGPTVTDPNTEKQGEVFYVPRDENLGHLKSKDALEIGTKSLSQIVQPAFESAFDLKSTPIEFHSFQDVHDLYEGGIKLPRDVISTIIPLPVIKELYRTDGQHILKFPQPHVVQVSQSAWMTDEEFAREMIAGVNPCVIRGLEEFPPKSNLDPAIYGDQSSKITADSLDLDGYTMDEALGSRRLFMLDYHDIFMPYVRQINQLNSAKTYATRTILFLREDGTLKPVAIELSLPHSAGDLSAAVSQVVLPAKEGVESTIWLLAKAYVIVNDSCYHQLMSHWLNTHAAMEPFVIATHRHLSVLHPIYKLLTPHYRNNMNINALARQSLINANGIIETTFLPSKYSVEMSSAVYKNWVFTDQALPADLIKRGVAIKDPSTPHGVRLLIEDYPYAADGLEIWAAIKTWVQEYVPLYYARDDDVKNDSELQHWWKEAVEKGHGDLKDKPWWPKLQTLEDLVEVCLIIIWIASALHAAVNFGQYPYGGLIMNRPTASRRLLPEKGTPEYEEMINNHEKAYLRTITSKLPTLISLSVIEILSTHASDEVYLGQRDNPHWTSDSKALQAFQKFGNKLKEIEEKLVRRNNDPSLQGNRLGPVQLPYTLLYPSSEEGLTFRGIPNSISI
Description: Type I-B soybean lipoxygenase is a commonly used enzyme for studying the anti-inflammatory properties of various compounds [19]. The lipoxygenase (LOX) inhibition assay measures the enzyme’s ability to convert sodium linoleate to 13-hydroperoxylinoleic acid. The inhibition of the enzyme by the investigated compounds was determined by measuring the absorbance at 234 nm for each prepared sample. Specifically, the test compound, Tris buffer, an enzyme solution (5 × 10^3 units/mL in saline), and sodium linoleate (3 mM in Tris buffer, pH 9), were added to a UV cuvette, and the absorbance was recorded. […] All measurements were performed in triplicate.

Structure (SMILES) | inhibition at 100 µM
O=C1NCC(c2ccccc2)O1 (centres unmarked) [Compound 7, 5-Phenyl-1,3-oxazolidin-2-one] | 18.3 ± 0.3%
S=C1NC[C@H](c2ccccc2)O1 [Compound 5, (S)-5-phenyl-1,3-oxazolidine-2-thione] | 40 ± 0.5%
S=C1NCC(c2ccccc2)O1 (racemic) [Compound 4, rac-5-Phenyl-1,3-oxazolidine-2-thione] | 90.5 ± 0.1%

same assay, conditions: mean ± SD

Structure (SMILES) | IC50
S=C1NC[C@H](c2ccccc2)O1 [Compound 5, (S)-5-phenyl-1,3-oxazolidine-2-thione] | 123 ± 1.5 µM
S=C1NCC(c2ccccc2)O1 (racemic) [Compound 4, rac-5-Phenyl-1,3-oxazolidine-2-thione] | 61.6 ± 0.6 µM

same assay, conditions: read-out: Percentage of LOX Inhibition

Structure (SMILES) | inhibition at 100 µM
Oc1ccc(CCN=C=S)cc1 [Compound 8, 2-(4-hydroxyphenyl)ethyl isothiocyanate] | 21.2 ± 0.3%

tested on: B. animalis subsp. lactis; assay: Microdilution MIC/MMC with resazurin; format: cell-based, Bifidobacterium animalis subsp. lactis; details: B. animalis subsp. lactis; compounds 1–8
Description: as §1, §2, §3, §4, §5

Structure (SMILES) | MIC | MMC
Oc1ccc(CCN=C=S)cc1 [Compound 8, 2-(4-hydroxyphenyl)ethyl isothiocyanate] | <39 µg/mL | 0.625 mg/mL
O=C1NCC(c2ccccc2)O1 (centres unmarked) [Compound 7, 5-Phenyl-1,3-oxazolidin-2-one] |  | 5 mg/mL
S=C1NC[C@H](c2ccccc2)O1 [Compound 5, (S)-5-phenyl-1,3-oxazolidine-2-thione] |  | 5 mg/mL
S=C1NCC(c2ccccc2)O1 (racemic) [Compound 4, rac-5-Phenyl-1,3-oxazolidine-2-thione] |  | 5 mg/mL

same assay, conditions: Bifidobacterium animalis

Structure (SMILES) | MIC
Oc1ccc(CCN=C=S)cc1 [Compound 8, 2-(4-hydroxyphenyl)ethyl isothiocyanate] | < 39 µg/mL

same assay, conditions: Bifidobacterium animalis; B. animalis subsp. lactis; compounds 1–8; read-out: MIC

Structure (SMILES) | MIC
O=C1NCC(c2ccccc2)O1 (centres unmarked) [Compound 7, 5-Phenyl-1,3-oxazolidin-2-one] | 2500 µg/mL (≈ 15.3 mM)
S=C1NC[C@H](c2ccccc2)O1 [Compound 5, (S)-5-phenyl-1,3-oxazolidine-2-thione] | 1250 µg/mL (≈ 6.97 mM)
S=C1NCC(c2ccccc2)O1 (racemic) [Compound 4, rac-5-Phenyl-1,3-oxazolidine-2-thione] | 1250 µg/mL (≈ 6.97 mM)

tested on: not listed separately; assay: DPPH radical scavenging assay; details: 25 µM, 20 min; mean ± SD
Description: The DPPH assay was used to assess the ability of the tested compounds to scavenge reactive radical species. Stock solutions of the investigated compounds were prepared in DMSO and then diluted with methanol to a final volume of 1000 µL. An equal volume of a 50 µM DPPH solution in methanol was then added to the prepared mixture. The final concentrations of the test compounds were 25, 50, and 100 µM. After thorough mixing, the samples were incubated in the dark at room temperature for 20 to 60 min. Methanol was used as a blank, and absorbance was measured at 517 nm after incubation. All measurements were performed in triplicate.

Structure (SMILES) | DPPH Scavenging Ability
Oc1ccc(CCN=C=S)cc1 [Compound 8, 2-(4-hydroxyphenyl)ethyl isothiocyanate] | 4.4 ± 1.0%
O=C1NCC(c2ccccc2)O1 (centres unmarked) [Compound 7, 5-Phenyl-1,3-oxazolidin-2-one] | 1.1 ± 0.4%
S=C1NC[C@H](c2ccccc2)O1 [Compound 5, (S)-5-phenyl-1,3-oxazolidine-2-thione] | 7.0 ± 0.9%
S=C1NCC(c2ccccc2)O1 (racemic) [Compound 4, rac-5-Phenyl-1,3-oxazolidine-2-thione] | 1.2 ± 0.7%

same assay, conditions: 25 µM, 60 min; mean ± SD

Structure (SMILES) | DPPH Scavenging Ability
Oc1ccc(CCN=C=S)cc1 [Compound 8, 2-(4-hydroxyphenyl)ethyl isothiocyanate] | 4.7 ± 1.2%
O=C1NCC(c2ccccc2)O1 (centres unmarked) [Compound 7, 5-Phenyl-1,3-oxazolidin-2-one] | 0.9 ± 0.7%
S=C1NC[C@H](c2ccccc2)O1 [Compound 5, (S)-5-phenyl-1,3-oxazolidine-2-thione] | 8.4 ± 0.5%
S=C1NCC(c2ccccc2)O1 (racemic) [Compound 4, rac-5-Phenyl-1,3-oxazolidine-2-thione] | 1.3 ± 0.5%

same assay, conditions: 50 µM, 20 min; mean ± SD

Structure (SMILES) | DPPH Scavenging Ability
Oc1ccc(CCN=C=S)cc1 [Compound 8, 2-(4-hydroxyphenyl)ethyl isothiocyanate] | 7.3 ± 1.3%
O=C1NCC(c2ccccc2)O1 (centres unmarked) [Compound 7, 5-Phenyl-1,3-oxazolidin-2-one] | 1.5 ± 0.9%
S=C1NC[C@H](c2ccccc2)O1 [Compound 5, (S)-5-phenyl-1,3-oxazolidine-2-thione] | 14.8 ± 0.7%
S=C1NCC(c2ccccc2)O1 (racemic) [Compound 4, rac-5-Phenyl-1,3-oxazolidine-2-thione] | 1.7 ± 0.8%

same assay, conditions: 50 µM, 60 min; mean ± SD

Structure (SMILES) | DPPH Scavenging Ability
Oc1ccc(CCN=C=S)cc1 [Compound 8, 2-(4-hydroxyphenyl)ethyl isothiocyanate] | 8.1 ± 1.3%
O=C1NCC(c2ccccc2)O1 (centres unmarked) [Compound 7, 5-Phenyl-1,3-oxazolidin-2-one] | 1.5 ± 0.8%
S=C1NC[C@H](c2ccccc2)O1 [Compound 5, (S)-5-phenyl-1,3-oxazolidine-2-thione] | 16.4 ± 0.4%
S=C1NCC(c2ccccc2)O1 (racemic) [Compound 4, rac-5-Phenyl-1,3-oxazolidine-2-thione] | 2.0 ± 0.9%

same assay, conditions: 100 µM, 20 min; mean ± SD

Structure (SMILES) | DPPH Scavenging Ability
Oc1ccc(CCN=C=S)cc1 [Compound 8, 2-(4-hydroxyphenyl)ethyl isothiocyanate] | 13.1 ± 0.7%
O=C1NCC(c2ccccc2)O1 (centres unmarked) [Compound 7, 5-Phenyl-1,3-oxazolidin-2-one] | 2.6 ± 1.0%
S=C1NC[C@H](c2ccccc2)O1 [Compound 5, (S)-5-phenyl-1,3-oxazolidine-2-thione] | 21.6 ± 1.2%
S=C1NCC(c2ccccc2)O1 (racemic) [Compound 4, rac-5-Phenyl-1,3-oxazolidine-2-thione] | 3.8 ± 1.2%

same assay, conditions: 100 µM, 60 min; mean ± SD

Structure (SMILES) | DPPH Scavenging Ability
Oc1ccc(CCN=C=S)cc1 [Compound 8, 2-(4-hydroxyphenyl)ethyl isothiocyanate] | 14.2 ± 0.9%
O=C1NCC(c2ccccc2)O1 (centres unmarked) [Compound 7, 5-Phenyl-1,3-oxazolidin-2-one] | 2.7 ± 1.5%
S=C1NC[C@H](c2ccccc2)O1 [Compound 5, (S)-5-phenyl-1,3-oxazolidine-2-thione] | 22.4 ± 0.7%
S=C1NCC(c2ccccc2)O1 (racemic) [Compound 4, rac-5-Phenyl-1,3-oxazolidine-2-thione] | 3.5 ± 1.7%

— paper PMC12693701, “Glucosinolate-Derived Metabolites from Barbarea vulgaris (Brassicaceae): Evaluation of Antimicrobial, Antioxidant, and Anti-Inflammatory Potentials” (Molecules, 2025)
